Like-named read-outs stand apart in the source and are kept apart here.
Assays:
[1] = test system: rabbit articular chondrocytes; test: Cellular toxicity on rabbit articular chondrocytes; format: cell-based; details: noted beside IN in Table 3
Protocol: (§1) a) The inhibitory activity on the formation of NO measured as NO2^− (nitrite) and PGE2 was studied in vitro on culture media of rabbit articular chondrocytes stimulated with the cytokine IL-1β (1 ng/ml) for 48 hours. For the preparation of the chondrocytes, the method described by Berenbaum et al. [FEBS Letters 340, 51-55 (1994)] was followed. Briefly, fragments of cartilage removed aseptically from the articular heads of rabbit shoulder, hip and knee were finely ground and digested at 37° C. in hyaluronidase, trypsin and collagenase solutions, giving, after filtration through sterile gauze and centrifugation at 600×g and suitable dilution with 10% DMEM-FCS 10%, a concentration per well of about 1×10^5 cells. The cells were maintained under these conditions until confluent (about 15 days), the medium being replaced every 3 days. At this point, the test products dissolved in the medium were added to each sample and, after 20 minutes, 350 μl of IL-1β were added, to give a final concentration of 1 ng/ml. The stimulation lasted 48 hours at 37° C. (incubation in air/7% CO2). A nitrite assay was subsequently performed on the cell supernatant, as described by Green et al. [Anal. Biochem. 126, 131-138 (1982)], and of PGE2 by RIA assay. The results obtained are shown in Table 3, in which is given, for a number of the compounds that are the subject of the invention and that are already illustrated in Table 1, the IC50, i.e. the concentration (micromolar) of antagonist capable of inhibiting the formation of nitrites and PGE2 by 50% relative to the control group, i.e. relative to the cells stimulated with IL-1β but without addition of antagonists.

PGE2 = test: Inhibition of PGE2 formation in rabbit articular chondrocytes stimulated with IL-1β (RIA); format: cell-based; details: for IC50: Oryctolagus cuniculus, Chondrocyte
Protocol: as §1

[2] = test system: rat paw injected with Zymosan; test: Zymosan-induced mechanical hyperalgesia in rats (Randall-Selitto); format: in vivo; details: os, 0-6 hours, dose increasing pain threshold by 30%
Protocol: (§2) This is a phlogogenic agent, consisting of a protein-glycoside complex, extracted from the cell walls of raw yeast, which is capable of inducing rapid degranulation of neutrophils, an increase in the production of TNF-α, interleukin-1 (IL-1), IL-6 and stimulation of NO generation by monocytes and macrophages (ZymosaN:Merck Index XIII ed. No. 10250, p. 1818).
(§3) The experiments consisted of sub-plantar intradermal injection into the animal of 4 mg of Zymosan suspended in 100 μl of sterile physiological solution, while the test compounds were administered orally 30 minutes before injection of the phlogogenic agent.
(§4) Measurement of the inflammation of the injected paw and of the consequent hyperalgesic effects was performed 2, 4 and 6 hours after the administration of Zymosan. The oedema was evaluated as the increase in volume of the injected paw within the period 0-6 hours, relative to the initial value of the volume of the paw, i.e. before the injection of Zymosan (basal value).
The hyperalgesia induced by the intradermal administration of Zymosan was evaluated on these animals and at the same times described previously for the evaluation of the oedema, using the Randall-Selitto method [Arch. Int. Pharmacodyn. 111, 409 (1957)].
When the animal makes a noise following the pain stimulus, the operator blocks the punch and records the force, expressed in grams, which was applied to the paw (the cut-off value is 500 grams). The difference in the meal chanical pain threshold between the basal value (generally about 230-250 grams) and that recorded at the indicated times after injection of the phlogogenic agent, generally 130-140 g for the control animals 6 hours after injection of the phlogogenic agent, is defined as mechanical hyperalgesia. In this case also, an ED30 was calculated, i.e. the dose in mg/kg capable of increasing the pain threshold by 30% (meal chanical hyperalgesia) in the animals treated with the test compounds relative to the group of control animals.

[3] = test system: formation of NO measured as NO2^− (nitrite); test: Inhibition of NO (nitrite) formation in rabbit articular chondrocytes stimulated with IL-1β; format: cell-based; details: Oryctolagus cuniculus, Chondrocyte
Protocol: as §1

IL-6 = test: Inhibition of IL-6 expression (mRNA) in SW 1353 cells stimulated with IL-1β, Real Time PCR; format: cell-based; details: Homo sapiens, SW1353; SW 1353 cells stimulated for 6 hours with IL-1β
Description: In practice, the RNA extracted from the cells was back-transcribed to c-DNA by means of a thermocycler (BioRad—“iCycler”) and subsequently amplified via the Real Time PCR technique using a probe and a primer specific for IL-6, from the company Applied Biosystem, and the thermocycler 7000 Sequence Detection System (Applied Biosystem).
The capacity […] may be considered as large, since the increase in the expression of this cytokine is associated with the physiopathology of various human diseases, for instance Crohn's disease, as described previously.

[4] = test system: rat paw injected with Zymosan; test: Zymosan-induced paw oedema in rats; format: in vivo; details: for anti-inflammatory and anti-hyperalgesic action (in words): Zymosan, administered orally, L-NAME up to maximum dose 50 mg/kg; for Anti-inflammatory activity (oedema) ED30 / Mean (Oedema + Analgesia) ED30: os, 0-6 hours; for Anti-inflammatory activity (oedema) ED30: dose reducing volume increase by 30%; for Mean (Oedema + Analgesia) ED30: mean of oedema and analgesia ED30
Protocol: as §2, §3, §4
The measurements of the variation of the volume of the paw were recorded using a hydroplethysmometer (Mod. 7150, Basile, Italy), which consists of two plastic cuvettes containing a surfactant liquid, the larger one being used for immersion of the paw, connected to the smaller one which contains a transducer capable of recording small displacements of volume of the liquid used for the measurement. The paw is immersed in the cuvettes up to the tibiotarsal joint. The volume of liquid displaced by the paw indicates the magnitude of the inflammation.
For each test compound, at least three doses were used (generally 10, 20 and 40 mg/kg) with at least five animals per group×dose, so as to be able to calculate an ED30, i.e. the dose in mg/kg capable of reducing by 30% the Zymosan-induced volume increase, relative to the group of control animals, i.e. animals injected only with the phlogogenic agent and treated orally with distilled water.

[5] = rabbit articular chondrocytes, IL-1β 1 ng/ml, 48 hours, RIA, read-out: Inhibition % IC50 PGE2
[6] = rabbit articular chondrocytes, IL-1β 1 ng/ml, 48 hours, RIA
[7] = rabbit articular chondrocytes, IL-1β 1 ng/ml, 48 hours, nitrite in supernatant, read-out: Inhibition % IC50 NO
[8] = rabbit articular chondrocytes stimulated with IL-1β, read-out: IC50, formation of PGE2

Row | SMILES | melting point | IC50 (PGE2; [5]) | IC50 [3, 7] | IC50 (IL-6) | IC50 ([3]; rabbit articular chondrocytes stimulated with IL-1β, read-out: IC50, production of NO) | IC50 (PGE2; [8]) | Tox = cellular toxicity (concentration) [1] | Inhibition % IC50 PGE2 (PGE2; [6]) | Analgesic activity (mechanical anti-hyperalgesia) ED30 [2] | anti-inflammatory and anti-hyperalgesic action (in words) [4] | Anti-inflammatory activity (oedema) ED30 [4] | Mean (Oedema + Analgesia) ED30 [4]
1 | CC(=N)Nc1ccc2nc(-c3ccc(Cl)cc3)sc2c1 [Compound 3, N-[2-(4-chlorophenyl)benzothiazol-6-yl]acetamidine] | 212.2 to 213.5 °C | 1900 nM |  |  |  |  | 30 µM |  |  |  |  | 
2 | CC(=N)Nc1ccc2c(c1)cc(-c1ccccc1)n2C [Compound 6, N-(1-methyl-2-phenyl-1H-indol-5-yl)acetamidine] | 184.6 to 185.8 °C |  |  |  |  |  | 30 µM | IN (IN = <25% inhibitory activity at 30 × 10^−6M) |  |  |  | 
3 | CC(=N)Nc1ccc2sc(-c3ccccc3)nc2c1 [Compound 9, N-(2-phenylbenzothiazol-5-yl)acetamidine] | 177 to 178 °C | 4200 nM | 18000 nM | 1500 to 6000 nM |  |  |  |  | 31.3 mg/kg | powerful anti-inflammatory and anti-hyperalgesic action | 33.9 mg/kg | 32.6 mg/kg
4 | COc1ccc(-c2nc3cc(NC(C)=N)ccc3s2)cc1 [Compound 15, N-[2-(4-methoxyphenyl)benzothiazol-5-yl]acetamidine] | 203 to 204.7 °C | 7400 nM |  |  |  |  | 30 µM |  |  |  |  | 
5 | CC(=N)Nc1ccc2oc(-c3ccccc3)cc2c1 [Compound 28, N-(2-phenylbenzofuran-5-yl)acetamidine] | 204.8 to 205.9 °C | 500 nM | 7800 nM | 1500 to 6000 nM | 3000 to 8000 nM | 300 to 800 nM |  |  | 24.4 mg/kg | powerful anti-inflammatory and anti-hyperalgesic action | 20.8 mg/kg | 22.6 mg/kg
6 | CC(=N)Nc1ccc2oc(-c3ccc(Cl)cc3)nc2c1 [Compound 30, N-[2-(4-chlorophenyl)benzoxazol-5-yl]acetamidine] | 183.6 to 185.1 °C | 300 nM |  |  |  | 300 to 800 nM | 30 µM |  |  |  |  | 

Continued, in another order:

Row | melting point | IC50 (PGE2; [5]) | IC50 [3, 7] | IC50 (IL-6) | IC50 ([3]; rabbit articular chondrocytes stimulated with IL-1β, read-out: IC50, production of NO) | IC50 (PGE2; [8]) | SMILES | Tox = cellular toxicity (concentration) [1] | Inhibition % IC50 PGE2 (PGE2; [6]) | Analgesic activity (mechanical anti-hyperalgesia) ED30 [2] | anti-inflammatory and anti-hyperalgesic action (in words) [4] | Anti-inflammatory activity (oedema) ED30 [4] | Mean (Oedema + Analgesia) ED30 [4]
7 | 163 to 165 °C | 5900 nM |  |  |  |  | COc1ccccc1-c1nc2cc(NC(C)=N)ccc2s1 [Compound 10, N-[2-(2-methoxyphenyl)benzothiazol-5-yl]acetamidine] | 100 µM |  |  |  |  | 
8 | 156.4 to 158.3 °C |  |  |  |  |  | COc1ccc(-c2nc3cc(NC(C)=N)ccc3s2)c(OC)c1 [Compound 16, N-[2-(2,4-dimethoxyphenyl)benzothiazol-5-yl]acetamidine] | 30 µM | IN (IN = <25% inhibitory activity at 30 × 10^−6M) |  |  |  | 
9 | 141.6 to 145.6 °C | 1300 nM |  |  |  |  | COc1cccc(-c2nc3cc(NC(C)=N)ccc3s2)c1 [Compound 17, N-[2-(3-methoxyphenyl)benzothiazol-5-yl]acetamidine] | 30 µM |  |  |  |  | 

From patent US20050197331A1, “Novel anti-inflammatory and analgesic heterocyclic amidines that inhibit nitrogen oxide (NO) production” (ROTTAPHARM SPA, priority 2004, published 2005)
